Patent publication US11912678B2, “LRRK2 inhibiting compounds and use thereof for treating neurodegenerative diseases” (CONSEJO SUPERIOR DE INVESTIGACIONES CIENTÍFICAS, priority 2018, dated 2024)

Key:
in vitro = conditions: PAMPA; for Pe (10−6 cm s−1) / Papp at 2.5 h: pig, pH 7.4; for Pe (10−6 cm s−1): 2.5 h
Source text: The above-referenced commercial compounds, phosphate buffer at pH=7.4 (PBS), Ethanol and dodecane were obtained from the commercial houses Sigma, Acros organics, Merck, Aldrich and Fluka, respectively. […] To filter the samples, PVDF membrane filters were used (30 mm diameter, 0.45 μm pore size) from the company Symta. The equipment used to measure UV absorbance in 96-well plates was a Thermoscientific Multiskan spectrum.
Ten reference compounds were selected, whose blood-brain barrier passage is known, in order to validate the experiment. […] The solutions were filtered. Next, 180 μL of a PBS/EtOH (70/30) solution were added to each well of the acceptor plate. The donor plate was impregnated with 4 μL of a pig brain lipid solution dissolved in dodecane (20 mg mL^−1). After 5 minutes, 180 μL of solution of each compound were added on this plate. Of the compounds whose penetration in the central nervous system is being evaluated, between 1-2 mg were taken and dissolved in 1,500 μL of EtOH and 3,500 μL of PBS phosphate buffer (pH=7.4), filtered and added to the 96-well donor plate. Next, the donor plate was placed on top of the acceptor plate forming a kind of “sandwich” and left to incubate for 2 h and 30 min at 25° C. The passive transport compounds pass from the donor plate through the pig brain lipid to the acceptor plate. After 2 h and 30 min, the donor plate is carefully removed. The concentration and absorbance of both the commercial compounds and the synthesised derivatives that were evaluated in the acceptor and donor plates were determined using a UV absorbance reader. Each sample was analysed at 2 to 5 wavelengths, in at least three wells and in two independent experiments. […] Ten reference commercial compounds whose penetration in the central nervous system is known were used in each experiment in order to validate the method.

[1] = test system: human neuronal line SH-SY5Y; assay: Neuroprotection against okadaic acid-induced tau hyperphosphorylation (MTT); assay type: cell-based; conditions: compounds 1, 5 and 10 μM pre-incubated 1 hour, OA 30 nM 24 hours
Description: The neuroprotective potential of the compounds was evaluated in an okadaic acid (OA)-induced neurodegeneration cell model. OA is an inhibitor of phosphatase 1 and 2 and is normally used to induce tau hyperphosphorylation in different cell lines. In this case, the human neuronal line SH-SY5Y is used. The cells are cultured in DMEM medium supplemented with 10% FBS and 1% penicillin/streptomycin at 37° C. and in an incubator with 5% CO2. The SH-SY5Y cells are sown on a 96-well plate at a density of 60,000 cells per well for 48 hours. After this time period, the cells are pre-incubated with the compounds to be studied at a concentration of 1, 5 and 10 μM for 1 hour. After that time period, OA is added at a concentration of 30 nM, letting the plate incubate for a further 24 hours. Next, the cells were incubated with an MTT solution at 0.5 mg·mL^−1 for at least 4 hours at 37° C. and 5% CO2. Next, the culture medium is removed and the formazan crystals joined to the base of the plate are dissolved with 200 μL of DMSO. Lastly, UV absorbance was measured at 595 nm in a plate reader (Varioskan Flash Microplate reader, Thermo Scientific).

LRRK2 = LRRK2 (Homo sapiens (Human), UniProt Q5S007); assay: Inhibition of LRRK2 (Adapta kinase assay); assay type: biochemical; conditions: Adapta method, 60 min kinase reaction
Chain of LRRK2 (Q5S007 whole entry): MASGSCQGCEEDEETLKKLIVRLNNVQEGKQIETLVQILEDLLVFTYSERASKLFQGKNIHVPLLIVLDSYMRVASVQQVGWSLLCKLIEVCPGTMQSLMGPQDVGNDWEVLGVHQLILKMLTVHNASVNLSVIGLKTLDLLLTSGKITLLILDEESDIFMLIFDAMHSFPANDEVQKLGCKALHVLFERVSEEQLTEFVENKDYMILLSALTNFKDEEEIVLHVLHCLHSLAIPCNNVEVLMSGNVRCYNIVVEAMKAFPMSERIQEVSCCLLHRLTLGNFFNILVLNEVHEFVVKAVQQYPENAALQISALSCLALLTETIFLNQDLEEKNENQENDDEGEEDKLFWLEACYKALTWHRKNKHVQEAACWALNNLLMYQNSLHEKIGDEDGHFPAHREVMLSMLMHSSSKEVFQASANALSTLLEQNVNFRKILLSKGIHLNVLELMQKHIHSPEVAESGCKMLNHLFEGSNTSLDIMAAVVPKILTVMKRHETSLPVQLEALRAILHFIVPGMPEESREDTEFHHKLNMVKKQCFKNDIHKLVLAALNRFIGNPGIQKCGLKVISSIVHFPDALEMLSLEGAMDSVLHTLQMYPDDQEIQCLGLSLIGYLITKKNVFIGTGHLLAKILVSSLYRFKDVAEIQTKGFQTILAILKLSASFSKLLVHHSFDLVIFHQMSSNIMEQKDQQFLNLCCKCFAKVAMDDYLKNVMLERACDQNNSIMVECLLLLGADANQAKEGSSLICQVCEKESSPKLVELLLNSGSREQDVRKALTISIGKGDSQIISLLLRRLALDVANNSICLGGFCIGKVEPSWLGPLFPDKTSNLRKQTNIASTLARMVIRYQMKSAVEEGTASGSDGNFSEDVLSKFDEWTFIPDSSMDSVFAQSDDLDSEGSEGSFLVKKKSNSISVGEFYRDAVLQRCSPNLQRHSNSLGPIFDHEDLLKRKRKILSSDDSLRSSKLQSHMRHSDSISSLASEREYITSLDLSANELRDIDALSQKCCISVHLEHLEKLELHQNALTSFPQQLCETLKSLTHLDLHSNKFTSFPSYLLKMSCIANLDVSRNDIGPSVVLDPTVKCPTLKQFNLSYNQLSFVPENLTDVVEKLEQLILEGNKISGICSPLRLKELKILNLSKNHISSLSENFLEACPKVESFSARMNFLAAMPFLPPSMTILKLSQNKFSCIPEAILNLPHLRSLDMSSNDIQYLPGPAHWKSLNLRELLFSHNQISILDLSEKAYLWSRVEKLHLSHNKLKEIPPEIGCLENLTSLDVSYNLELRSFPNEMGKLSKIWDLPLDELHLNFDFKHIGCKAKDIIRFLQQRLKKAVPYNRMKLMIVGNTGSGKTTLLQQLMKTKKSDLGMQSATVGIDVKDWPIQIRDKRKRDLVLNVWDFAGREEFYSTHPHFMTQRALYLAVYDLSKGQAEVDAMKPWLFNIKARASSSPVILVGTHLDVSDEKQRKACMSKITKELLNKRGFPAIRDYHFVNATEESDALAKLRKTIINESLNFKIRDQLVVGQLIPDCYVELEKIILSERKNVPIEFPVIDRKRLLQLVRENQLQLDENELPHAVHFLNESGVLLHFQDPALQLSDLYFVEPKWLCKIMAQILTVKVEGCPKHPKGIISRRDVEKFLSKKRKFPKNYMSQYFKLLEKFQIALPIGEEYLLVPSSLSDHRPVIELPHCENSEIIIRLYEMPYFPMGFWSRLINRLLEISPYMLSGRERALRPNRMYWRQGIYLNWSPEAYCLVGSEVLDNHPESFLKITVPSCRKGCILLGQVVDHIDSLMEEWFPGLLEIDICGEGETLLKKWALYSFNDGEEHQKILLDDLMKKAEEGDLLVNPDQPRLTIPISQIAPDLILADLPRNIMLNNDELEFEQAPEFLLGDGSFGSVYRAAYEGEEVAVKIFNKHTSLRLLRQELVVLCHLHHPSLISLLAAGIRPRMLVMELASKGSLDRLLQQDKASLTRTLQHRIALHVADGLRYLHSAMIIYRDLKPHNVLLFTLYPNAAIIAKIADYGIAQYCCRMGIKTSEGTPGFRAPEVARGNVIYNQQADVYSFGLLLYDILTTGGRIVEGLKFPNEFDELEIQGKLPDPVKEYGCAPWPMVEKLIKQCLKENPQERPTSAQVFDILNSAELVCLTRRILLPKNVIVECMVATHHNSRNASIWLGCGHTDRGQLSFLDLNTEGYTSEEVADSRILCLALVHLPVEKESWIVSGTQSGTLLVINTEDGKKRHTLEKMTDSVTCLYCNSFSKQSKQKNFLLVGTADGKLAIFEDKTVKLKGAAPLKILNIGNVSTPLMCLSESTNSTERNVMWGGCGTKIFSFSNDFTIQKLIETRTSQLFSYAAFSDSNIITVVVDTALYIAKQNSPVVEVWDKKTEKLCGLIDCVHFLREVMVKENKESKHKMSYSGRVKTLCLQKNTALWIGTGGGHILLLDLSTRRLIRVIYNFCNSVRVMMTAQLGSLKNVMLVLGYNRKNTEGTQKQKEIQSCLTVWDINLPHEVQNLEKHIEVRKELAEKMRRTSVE
Description: (§1) The compounds were evaluated in LRRK2 and in the mutated form LRRK2 G2019S. This mutation is more frequent in the familial forms of Parkinson's Disease and has a significant increase in kinase activity. The experimental determination of the inhibition of both enzymes was carried out using the Adapta® method, which is an evaluation method of fluorescent kinase activity that determines ADP in a highly sensitive manner. The methodology can be divided into two stages: kinase reaction and ADP determination. In the first stage, all the components for the kinase reaction are added to the well and incubated for 60 min. After the reaction, the ADP detection solution which contains a Europium-labeled anti-ADP antibody (Alexa Fluor® 647 labeled ADP tracer) and EDTA, to stop the kinase reaction, are added to the reaction well. The ADP formed in the kinase reaction without inhibitor will displace the Alexa Fluor® 647 labeled ADP tracer of the antibody, resulting in the TR-FRET signal decrease.
(§2) The assay is performed in 384-well plates. Adding 100 nL of the solution with the compound to be evaluated in 1% DMSO, 2.4 μL of HEPES solution, 2.5 μL of ATP solution, […] of substrate solution. The 10 μl of the kinase reaction contain: […] LRRK2 and 200 μM ERM (LRRKtide) in 25 mM Tris/7.5 mM HEPES pH 8.2, 0.005% BRIJ-35, 5 mM MgCl2, 0.5 mM EGTA, 0.01% NaN3 or 3-12 ng LRRK2 G2019S and 200 μM ERM (LRRKtide) in 25 mM Tris/7.5 mM HEPES pH 8.2, 0.005% BRIJ-35, 5 mM MgCl2, 0.5 mM EGTA, 0.01% NaN3. The plate is stirred for 30 s on a stirring plate and centrifuged for 1 min in a centrifuge at 1,000×g. The reaction is incubated at room temperature for 60 min. After this time period, 5 μL of the detection mixture is added, the plate is stirred for 30 s on a stirring plate and centrifuged for 1 min at 1,000×g. Fluorescence is determined in a plate reader and the data are analysed.

LRRK2 G2019S = LRRK2 G2019S (Homo sapiens (Human), UniProt Q5S007, G2019S); assay: Inhibition of LRRK2 G2019S (Adapta kinase assay); assay type: biochemical; conditions: Adapta method, 60 min kinase reaction
Chain of LRRK2 G2019S (Q5S007 whole entry G2019S): as the sequence (Q5S007 whole entry) above, with G2019S counted along it
Description: as §1, §2

Structure (SMILES) | Pe (10−6 cm s−1) (in vitro) | IC50 (LRRK2) [µM] | IC50 (LRRK2 G2019S) [µM] | Prediction of penetration in the central nervous system (CNS) (in vitro) | Papp at 2.5 h (in vitro) [×10⁻⁶ cm/s] | Blood-brain barrier penetration by passive diffusion (in vitro) | Neuroprotection against okadaic acid damage / tau hyperphosphorylation [1]
O=C(Nc1nc2ccc(C(F)(F)F)cc2s1)c1ccc(N2CCOCC2)cc1 [Compound 3, N-(6-trifluoromethylbenzothiazole-2-yl)-4-morpholinobenzamide] |  | 1.06 | 0.293 |  |  |  | prevents the damage caused by the okadaic acid
Cc1ccc2nc(NC(=O)c3ccc(N4CCOCC4)cc3)sc2c1 [Compound 4, N-(6-methylbenzothiazole-2-yl)-4-morpholinobenzamide] | 19.0 ± 2.6 10−6 cm s−1 | 0.523 | 0.332 |  |  | capable of penetrating the blood-brain barrier by passive diffusion | prevents the damage caused by the okadaic acid
O=C(Nc1nc2ccc(Cl)cc2s1)c1ccc(N2CCOCC2)cc1 [Compound 5, N-(6-chlorobenzothiazole-2-yl)-4-morpholinobenzamide] |  | 0.777 |  | CNS+/− | 3.42 ± 1.26 |  | prevents the damage caused by the okadaic acid
O=C(Nc1nc2ccc(F)cc2s1)c1ccc(N2CCOCC2)cc1 [Compound 6, N-(6-fluorobenzothiazole-2-yl)-4-morpholinobenzamide] | 5.1 ± 0.1 10−6 cm s−1 | 0.19 | 0.426 |  |  | capable of penetrating the blood-brain barrier by passive diffusion | prevents the damage caused by the okadaic acid
CCOc1ccc2nc(NC(=O)c3ccc(N4CCOCC4)cc3)sc2c1 [Compound 7, N-(6-ethoxybenzothiazole-2-yl)-4-morpholinobenzamide] |  | 0.308 | 0.158 |  |  |  | prevents the damage caused by the okadaic acid
O=C(Nc1nc2ccc(Br)cc2s1)c1ccc(N2CCOCC2)cc1 [Compound 8, N-(6-bromobenzothiazole-2-yl)-4-morpholinobenzamide] |  | 0.474 | 1.38 |  |  |  | prevents the damage caused by the okadaic acid
CCCOc1ccc2nc(NC(=O)c3ccc(N4CCOCC4)cc3)sc2c1 [Compound 9, N-(6-propoxybenzothiazole-2-yl)-4-morpholinobenzamide] |  | 4 | 1.19 |  | 4.28 ± 3.45 |  | prevents the damage caused by the okadaic acid
CC(C)c1ccc2nc(NC(=O)c3ccc(N4CCOCC4)cc3)sc2c1 [Compound 10, N-(6-isopropylbenzothiazole-2-yl)-4-morpholinobenzamide] |  | 1.95 | 1.17 |  | 4.27 ± 2.7 |  | prevents the damage caused by the okadaic acid

Now from value to compound, other results behind:

Pe (10−6 cm s−1) (in vitro) | IC50 (LRRK2) [µM] | IC50 (LRRK2 G2019S) [µM] | Prediction of penetration in the central nervous system (CNS) (in vitro) | Papp at 2.5 h (in vitro) [×10⁻⁶ cm/s] | Structure (SMILES) | Blood-brain barrier penetration by passive diffusion (in vitro) | Neuroprotection against okadaic acid damage / tau hyperphosphorylation [1]
13.4 ± 2.4 10−6 cm s−1 | 0.696 | 0.36 |  |  | O=C(Nc1nc2ccccc2s1)c1ccc(N2CCOCC2)cc1 [Compound 1, N-(benzothiazole-2-yl)-4-morpholinobenzamide] | capable of penetrating the blood-brain barrier by passive diffusion | prevents the damage caused by the okadaic acid
 | 0.368 | 0.108 |  |  | COc1ccc2nc(NC(=O)c3ccc(N4CCOCC4)cc3)sc2c1 [Compound 2, N-(6-methoxybenzothiazole-2-yl)-4-morpholinobenzamide] |  | prevents the damage caused by the okadaic acid
0.6 ± 0.2 10−6 cm s−1 |  |  |  |  | CN1C(C(=O)Nc2ccccn2)=C(O)c2ccccc2S1(=O)=O [Piroxicam, reference compound] |  | 
9.8 ± 0.5 10−6 cm s−1 |  |  |  |  | CN(C)CCCN1c2ccccc2Sc2ccccc21 [Promazine, reference compound] |  | 
